# Measured values from patent US20250352615A1, “COMPOSITIONS AND METHODS FOR THE MODULATION OF PIEZO1 AND TRPV4” (Duke University, priority 2021, published 2025).
# Key:
# pancreatic acini = experiment: Mitochondrial depolarization in pancreatic acini (TMRE); type: cell-based, mouse; settings: Yoda1 50 μM
# Protocol: Live-cell mitochondrial depolarization was analyzed using the mitochondrial labeling dye, TMRE. Isolated acini were plated on a thin-layered, Matrigel-coated, glass-bottom culture plate with DMEM/F12 and 10% FBS media and placed in a CO2 incubator for 1 hr at 37° C. After 1 hr, the acini were incubated with TMRE (200 nM) in the bath buffer containing 140 mM NaCl, 4.7 mM KCl, 2.0 CaCl2, 1 mM MgCl2, 10 mM HEPES, and 10 mM glucose (pH adjusted to 7.4 with NaOH) for 30 minutes. The TMRE dye was washed and replaced with fresh bath buffer. The images were captured with a Zeiss Axio observer Z1 microscope with MetaMorph software (Molecular Devices) at intervals of 600 ms. TMRE was excited at 540-600 nm and emission collected at 585-675 nm. Carbonyl cyanide 4-(trifluoromethoxy) phenylhydrazone (FCCP), which uncouples the oxidative phosphorylation process and depolarizes mitochondria, was used as a positive control. A maximum of 2 mitochondrial puncta were taken per acinar cell.
# PLA2 = PLA2 activity in living pancreatic acini (Bis-BODIPY FL C11-PC); type: cell-based, mouse; settings: Yoda1 25 μM
# Protocol: The fluorogenic PLA2 substrate (Bis-BODIPY FL C11-PC) (Thermo Fisher Scientific; B7701) was used to monitor PLA2 activity in living cells. The pancreatic acini were incubated with Bis-BODIPY FL C11-PC in HBSS buffer with 2 mM Ca^2+ for 30 minutes. HBSS buffer with 2 mM Ca^2+ was used during imaging. A Zeiss Axio observer Z1 with a high-sensitivity EMCCD camera with a ×40/0.75 EC-Plan-NeoFluar DIC objective was used to capture the Z-stack images with stack thickness of 4 μm at an interval of 10 seconds with 480 nm excitation and 525 nm emission filter. The captured images were analyzed with MetaMorph software (Molecular Devices).
# Piezo1 = target: T1, Piezo1 (Mus musculus, UniProt E2JF22); experiment: Calcium imaging of Piezo1-mediated [Ca2+]i in mouse PSCs; type: cell-based
# T1 construct: endogenous in cells; host or cells: freshly isolated mouse pancreatic acini (WT = Piezo1 fl/fl on a C57BL/6J background)
# T1 sequence (E2JF22 whole entry): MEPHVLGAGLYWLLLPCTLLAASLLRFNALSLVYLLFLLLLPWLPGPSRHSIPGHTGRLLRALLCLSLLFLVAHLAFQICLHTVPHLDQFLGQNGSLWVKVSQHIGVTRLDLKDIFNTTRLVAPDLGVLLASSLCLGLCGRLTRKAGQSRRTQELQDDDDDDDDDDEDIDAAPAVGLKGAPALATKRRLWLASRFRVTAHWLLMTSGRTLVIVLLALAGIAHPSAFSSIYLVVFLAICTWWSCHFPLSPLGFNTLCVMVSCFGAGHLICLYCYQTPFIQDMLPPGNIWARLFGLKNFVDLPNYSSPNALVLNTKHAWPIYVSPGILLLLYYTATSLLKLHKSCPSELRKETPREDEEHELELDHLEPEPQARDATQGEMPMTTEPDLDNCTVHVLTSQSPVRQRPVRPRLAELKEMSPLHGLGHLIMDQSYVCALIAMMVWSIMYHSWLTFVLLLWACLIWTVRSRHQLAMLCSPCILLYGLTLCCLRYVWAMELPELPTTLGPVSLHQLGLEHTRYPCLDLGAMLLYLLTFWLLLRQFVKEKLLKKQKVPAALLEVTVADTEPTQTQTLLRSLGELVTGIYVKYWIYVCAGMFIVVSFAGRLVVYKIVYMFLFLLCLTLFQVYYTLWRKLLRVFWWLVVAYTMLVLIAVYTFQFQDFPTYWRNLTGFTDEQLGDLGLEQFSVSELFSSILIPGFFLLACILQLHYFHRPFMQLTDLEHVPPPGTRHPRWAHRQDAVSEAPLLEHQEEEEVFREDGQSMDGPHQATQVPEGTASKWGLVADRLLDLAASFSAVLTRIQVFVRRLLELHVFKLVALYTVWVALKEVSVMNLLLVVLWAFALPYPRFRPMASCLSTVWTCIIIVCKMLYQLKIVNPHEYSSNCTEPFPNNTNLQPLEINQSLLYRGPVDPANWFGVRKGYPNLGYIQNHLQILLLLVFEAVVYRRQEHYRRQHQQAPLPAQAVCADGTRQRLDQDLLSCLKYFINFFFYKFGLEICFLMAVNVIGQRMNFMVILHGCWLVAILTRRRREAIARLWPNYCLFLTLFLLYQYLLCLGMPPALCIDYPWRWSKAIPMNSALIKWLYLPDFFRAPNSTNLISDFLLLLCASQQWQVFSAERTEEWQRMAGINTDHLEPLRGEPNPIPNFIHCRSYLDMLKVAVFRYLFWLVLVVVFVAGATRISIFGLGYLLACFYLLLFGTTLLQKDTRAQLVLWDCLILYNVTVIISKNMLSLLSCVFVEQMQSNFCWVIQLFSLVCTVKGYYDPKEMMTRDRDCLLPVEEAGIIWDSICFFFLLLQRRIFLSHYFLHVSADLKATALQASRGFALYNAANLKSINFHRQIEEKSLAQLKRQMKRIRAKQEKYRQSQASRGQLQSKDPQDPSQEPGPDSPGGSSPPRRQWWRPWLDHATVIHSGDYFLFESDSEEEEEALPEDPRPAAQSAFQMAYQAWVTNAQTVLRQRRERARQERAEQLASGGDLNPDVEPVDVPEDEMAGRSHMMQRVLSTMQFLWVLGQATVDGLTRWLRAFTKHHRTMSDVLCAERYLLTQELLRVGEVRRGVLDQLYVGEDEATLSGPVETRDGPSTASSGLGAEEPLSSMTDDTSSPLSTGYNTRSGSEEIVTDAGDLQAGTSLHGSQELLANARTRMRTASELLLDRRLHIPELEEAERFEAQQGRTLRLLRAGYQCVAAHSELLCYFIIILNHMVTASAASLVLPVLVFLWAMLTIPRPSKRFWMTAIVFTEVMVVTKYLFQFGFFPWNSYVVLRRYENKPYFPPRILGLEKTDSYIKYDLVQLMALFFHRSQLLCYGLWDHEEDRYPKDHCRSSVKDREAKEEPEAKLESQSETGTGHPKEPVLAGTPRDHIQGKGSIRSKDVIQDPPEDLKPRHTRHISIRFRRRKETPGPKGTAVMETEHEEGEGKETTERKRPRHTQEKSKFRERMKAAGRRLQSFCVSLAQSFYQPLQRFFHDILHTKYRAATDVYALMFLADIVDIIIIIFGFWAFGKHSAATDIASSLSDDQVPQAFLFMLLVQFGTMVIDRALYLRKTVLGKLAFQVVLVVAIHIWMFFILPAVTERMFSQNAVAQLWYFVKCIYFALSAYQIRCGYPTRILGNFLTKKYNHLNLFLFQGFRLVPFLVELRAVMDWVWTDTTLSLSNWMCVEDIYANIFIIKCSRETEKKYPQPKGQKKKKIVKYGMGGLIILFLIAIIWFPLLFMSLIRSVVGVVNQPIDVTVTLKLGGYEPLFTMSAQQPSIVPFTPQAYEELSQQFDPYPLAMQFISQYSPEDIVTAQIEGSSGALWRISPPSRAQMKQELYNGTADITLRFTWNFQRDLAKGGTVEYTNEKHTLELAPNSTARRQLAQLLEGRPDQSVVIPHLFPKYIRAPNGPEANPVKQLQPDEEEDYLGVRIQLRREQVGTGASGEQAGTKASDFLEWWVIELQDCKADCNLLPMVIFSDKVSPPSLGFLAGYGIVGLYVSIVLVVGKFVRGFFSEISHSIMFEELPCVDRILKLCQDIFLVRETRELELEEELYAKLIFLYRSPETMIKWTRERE
# Protocol: (§1) Mouse and human PSCs were isolated using collagenase digestion. Modified Krebs Henseleit Buffer (KHB) solution (100 mL) was prepared as previously described by Romac et al., Nat. Commun. 9(1):1715 (2018). Pancreatic tissue was digested with 2 mg of collagenase NB 8 (SERVA, catalog 17456) dissolved in 10 mL of modified KHB solution containing 1 mg soybean trypsin inhibitor (SBTI 1-S; Millipore Sigma, catalog T9003) and 20 mg BSA (Thermo Fisher Scientific; BP1600-100). Digestion solution (5 mL) was used to inflate the pancreas. Pancreas with 5 mL of digestion solution was incubated in a shaking water bath for 10 minutes at 37° C. The solution was then discarded. The pancreas tissue was cut into small pieces and digested with fresh 5 mL digestion buffer. Tissue was incubated in a shaking water bath for 40 minutes at 37° C. The cells were then separated from tissue by pipetting up-down with a 10 mL pipette and passed sequentially through a 70 μm and a 40 μm cell strainer. The filtrate was centrifuged at 150×g for 3 minutes at room temperature. The cells were washed with 10 mL Leibovitz's media (Thermo Fisher Scientific, catalog 11415-064), passed through a 20 μm filter, and centrifuged at 80×g for 3 minutes at room temperature. The supernate was removed, and isolated stellate cells were plated on a thin-layered Matrigel-coated glass bottom culture plate (MatTek, P35G-0-14-C). Before plating the cells, Matrigel solution (Corning, catalog 354234) at a ratio of 1.5:100 DMEM/F12 (Thermo Fisher Scientific, catalog 11330-032) was poured onto the culture plate and incubated for 2 hr at 37° C. to form a thin layer of Matrigel coating. Matrigel mixture was removed, and the plate was washed with PBS before cells were plated. Cell culture media, DMEM/F12 with 5% FBS was used for mouse stellate cells. Fresh, human pancreatic tissue was digested with collagenase as described above with modifications. Collagenase (2.5 mg) in 10 mL of modified KHB solution was used for digestion. The digested tissues were filtered through a 100 μm cell strainer. The cells were cultured with DMEM/F12 with 10% FBS in a Matrigel-coated plate. After 24 hr, the cell media was replaced with fresh media to remove unattached and dead cells. After 2 days, cells were immunostained for GFAP and used for experiments. Perinuclear fat droplets were stained with BODIPY 493/503 (4,4-Difluoro-1,3,5,7,8-Pentamethyl-4-Bora-3a,4a-Diaza-s-Indacene; Invitrogen, catalog D3922) to confirm stellate cell quiescence. The cell viability following Yoda1 treatment was analyzed using the Live/Dead cell imaging kit (Thermo Fisher Scientific, catalog R37601). RNAs were isolated using the RiboPure Kit (Invitrogen, catalog AM1924) according to manufacturer's instructions.
# (§2) Fluid shear stress and mechanical pushing applied to stellate cells were achieved as previously described by Wang et al., J. Clin. Invest. 126(12): 4527-4536 (2016). Parallel-plate fluid flow chambers (μ-Slide I 0.4 Luer, or μ-Slide I 0.2 Luer from Ibidi) were used for fluid shear stress experiments. The fluid shear stress (T) was calculated using the formula: τ=η×[…] φ for μ-Slide I 0.4 Luer and τ=η×330.4 φ for μ-Slide I 0.2 Luer, where r represents viscosity of the medium and φ represents flow rate (according to the manufacturer's instructions, Ibidi). Mechanical pushing was achieved by applying a blunt borosilicate glass pipette once to the cell membrane with a deflection of 2-3 μm for 1 second using a micromanipulator (World Precision Instruments).
# Calcium 6-QF (Molecular Devices) dye was used for live-cell calcium imaging as described by Romac et al., Nat. Commun. 9(1):1715 (2018). Cells were imaged in HBSS buffer with 2 mM Ca^2+. Faintly and highly fluorescent loaded cells were excluded from analysis. […]
# human PSCs = experiment: Human PSC activation and fibrogenic response (fat droplets, cell shape, ECM mRNA and immunostaining); type: cell-based
# Protocol: as §1, §2
# Mouse and human PSCs were washed with PBS (pH 7.4) and fixed with 4% paraformaldehyde for 10 minutes at room temperature. The fixed cells were treated with 0.1% Triton X-100. […]
# [1] = test system: Yes-associated protein (YAP); experiment: YAP nuclear localization in mouse stellate cells (immunostaining); type: cell-based; settings: Yoda1 25 μM for 4 hr
# Protocol: Murine stellate cells from wild type or Piezo1^GFAPKO mice were activated with 25 μM Yoda 1 for 4 hours before fixation. Immunostaining staining was performed as described in Swain et al. JCI Insight 7:e158288 (2022). Yap antibody was diluted at 1/100.
structure (smiles),measurement,setting,value
Clc1cccc(Cl)c1CSc1nnc(-c2cnccn2)s1 [Yoda1],mitochondrial depolarization in Piezo1aci-KO cells,pancreatic acini,did not depolarize mitochondria
same,rate of mitochondrial depolarization compared with CCK (10 nM),pancreatic acini,occurred at a higher rate than that induced with CCK
same,TMRE fluorescence intensity (mitochondrial depolarization),pancreatic acini; WT acini,significantly decreased TMRE fluorescence intensity
same,time to mitochondrial depolarization after application,pancreatic acini; CCK 10 nM,≤ 3 min
same,PLA2 activation in acini from Piezo1aci-KO mice,PLA2,did not stimulate PLA2 activation
same,onset of PLA2 activation after application,PLA2,≤ 30 s
same,time to plateau of PLA2 activity,PLA2,4 min
same,intensity of fluorogenic PLA2 substrate (PLA2 activity),PLA2; WT acini,markedly increased the intensity of the fluorogenic PLA2 substrate
same,Yoda1-stimulated [Ca2+]i increase in Piezo1-deleted PSCs,"Piezo1; Yoda1 25 μM, Piezo1GFAP-KO",absent in Piezo1-deleted PSCs
same,[Ca2+]i response to Yoda1,Piezo1; mouse PSCs,dose-dependent increases in [Ca^2+]i elevation
same,"Fibronectin, collagen type I, and Piezo1 mRNA levels","human PSCs; Yoda1 25 μM, 24 hr",significantly elevated
same,TGF-β1 gene expression,"human PSCs; Yoda1 25 μM, 24 hr",stimulation of profibrotic TGF-β1
same,mean cell area and maximum diameter (mean Feret's diameter-max),"human PSCs; Yoda1 25 μM, 24 hr",significant increase in mean cell area and maximum diameter
same,PSCs that had lost their perinuclear fat droplets,"human PSCs; Yoda1 25 μM, within 24 hours",~80%
same,fibronectin and collagen type I immunostaining,human PSCs; after 4 days of Yoda1 25 μM,abundant
same,YAP nuclear localization in stellate cells from Piezo1GFAP-KO mice,[1],No changes were observed
same,YAP nuclear localization,"[1]; wild-type stellate cells, preliminary",increases YAP nuclear localization
